What was measured:
SKMG3 cells = experiment: Cell cycle distribution by flow cytometry; type: cell-based, human
Experimental: (§1) Cell cycle distribution was determined following treatment with vehicle, radiation and/or 10 uM NGI-1. Cells were trypsinized and centrifuged, washed once with ice-cold PBS, fixed with ice-cold 70% ethanol and stored overnight at −20° C. After washing twice with PBS, they were incubated for 30 minutes at room temperature in 200 μL of Guava Cell Cycle Reagent (Guava Technologies). Cytofluorometric acquisitions were performed on a LSRII cytometer (BD Biosciences). First-line analysis was performed with FlowJo software, upon gating of the events characterized by normal forward and side scatter parameters and discrimination of doublets in a FSC-A vs. FSC-H bivariate plot. Approximately 50,000 cells were analyzed per experiment.

U251 cells = experiment: Radiation clonogenic survival assay; type: cell-based; conditions: 10 μM NGI-1
Experimental: (§2) Radiation (XRT) doses of either 0, 2, 4, or 6 Gy were delivered with a Precision X-ray 320-kV orthovoltage unit at a dose rate of 2 Gy/45 seconds (PXI X-Ray Systems). Twenty-four hours following XRT cells were washed, trypsinized, and re-plated in triplicate wells to determine clonogenic survival. […] Growth rates were determined by CellTiter 96 Non-Radioactive Cell Proliferation Assay (Promega; Madison, Wis., USA) according to the manufacturer's directions. For each experiment one thousand cells were seeded in triplicate wells in 96-wells plates. The following day, cell cultures were treated with NGI-1 (1 μM), Temozolomide (TMZ, 10 μM), Etoposide (VP-16, 0.1 μM) or combinations for 5 days. Absorbance at 540 nm was measured using the spectrophotometric reading (BioTek Synergy 2; Winooski, Vt. USA).

D54 cells = experiment: Radiation clonogenic survival assay; type: cell-based
Experimental: as §2

T98G cells = experiment: Radiation clonogenic survival assay; type: cell-based; conditions: 10 μM NGI-1
Experimental: as §2

H1975 = experiment: Cell cycle distribution by flow cytometry; type: cell-based; conditions: NGI-1 for 24 h, printed 40% vs 60%, higher value taken as NGI-1
Experimental: (§3) For the assessment of cell cycle distribution, 1×10^6 cells were collected, washed once with ice-cold PBS and fixed in ice-cold 70% ethanol overnight at −20° C. Thereafter, cells were washed twice with PBS and incubated for 30 min at room temperature in 200 μL of Guava Cell Cycle Reagent (Guava Technologies). Cytofluorometric acquisitions were performed on a LSRII cytometer (BD Biosciences). First-line analysis was performed with Flow Jo software, upon gating of the events characterized by normal forward and side scatter parameters and discrimination of doublets in a FSC-A vs. FSC-H bivariate plot. Approximately 30,000 cells were analyzed per experiment, and the mean value was obtained from 3 independent assays.

HCC-827-GR cells = experiment: Cell cycle distribution by flow cytometry; type: cell-based; conditions: NGI-1 for 24 h, printed 75% vs 45%
Experimental: as §3

PC9-GR2 = experiment: Cell cycle distribution by flow cytometry; type: cell-based; conditions: NGI-1 for 24 h, printed 80% vs 60%
Experimental: as §3

H1975-OR cells = experiment: Cell cycle distribution by flow cytometry; type: cell-based; conditions: NGI-1 for 24 h, printed 45% vs 75%, higher value taken as NGI-1
Experimental: as §3

PC9-GR1 = experiment: Cell cycle distribution by flow cytometry; type: cell-based; conditions: NGI-1 for 24 h, printed 60% vs 40%
Experimental: as §3

SKMG3-CD8-EGFR cells [1] = experiment: Radiation clonogenic survival assay; type: cell-based, human; conditions: 10 μM NGI-1
Experimental: as §2
(§4) The CD8 cDNA was a gift from Paula Kavathas (Yale University). The CD8-EGFR was constructed according to a strategy that generated a constitutively active IGF-1R (24). The extracellular domain of CD8 was PCR amplified with a 5′ XbaI and 3′ SalI restriction site and cloned in-frame with the intracellular kinase domain of EGFR using the pDCB5-EGFR plasmid. SKMG3-CD8-EGFR cells were generated by Lipofectamine (Life Technologies) transfection of the plasmid followed by selection with 500 μg/ml G418. Expression of CD8-EGFR was validated by western blot analysis of the wild type and CD8-EGFR.

MET, PDGFR and FGFR RTKs = experiment: Western blot of MET, PDGFR and FGFR phosphorylation and levels in glioma cells; type: cell-based
Experimental: In this study, the D54, SKMG3, U251, T98G and 42-MG glioma cell lines were used. The source of D54, SKMG3 and U251 cells has been described previously (Contessa at al., Clin Cancer Res., 16:3205-14 (2010), Lopez et al., Int J Radiat Oncol Biol Phys., 69:214-20 (2007)). The 42-MG and T98G cells were provided by Todd Waldman (Georgetown University) and Dr. Ranjit Bindra (Yale University), respectively. The cells were cultured in DMEM/F12 (D54 and T98G), DMEM (42-MG and U251) or RPMI 1640 (SKMG3)+10% FBS supplemented with penicillin and streptomycin (Gibco, Life Technologies, Grand Island, N.Y., US) in a humidified incubator with 5% CO2, and they were kept in culture no more than 6 months after resuscitation from the original stocks. […] Mycoplasma cell culture contamination was routinely checked and ruled out using a biochemical test (MycoAlert Mycoplasma Detection Kit from Lonza, Rockland, Me. USA). Tunicamycin was purchased from Calbiochem/EMD-millipore (Burlington, Mass., USA). Cetuximab and Erlotinib were purchased at Selleck Chemicals LLC (Houston, Tex., USA). Luciferin was supplied by Promega (Madison, Wis. USA). For in vitro experiments, radiation (XRT) was administered at room temperature using a Precision X-ray 320-kV orthovoltage unit at a dose rate of 2 Gy/45 seconds (PXI X-Ray Systems) with 2 mm aluminum filter. For in vivo studies, radiation was administered at room temperature using a Precision X-ray 250-kV orthovoltage unit at a dose rate of 6.42 Gy/min (PXI X-Ray Systems) with 2 mm aluminum filter. Quality Assurance for both irradiators was performed monthly using a P.T.W. 0.3 cm^3 Ionization Chamber calibrated to NIST standards and quarterly dosimetry using thermoluminescent dosimeter (TLD)-based or ferrous sulfate-based dosimeters.

H3255 = conditions: Lopez-Sambrooks et al., Nat Chem Biol. 2016; cited from earlier work
SKMG3-CD8-EGFR cells [2] = experiment: Cell cycle distribution by flow cytometry; type: cell-based, human; conditions: 10 μM NGI-1, 4 Gy
Experimental: as §1, §4

Cc1cnc(NC(=O)c2cc(S(=O)(=O)N(C)C)ccc2N2CCCC2)s1 [NGI-1, 5-(dimethylsulfamoyl)-N-(5-methyl-1,3-thiazol-2-yl)-2-(pyrrolidin-1-yl)benzamide]
cells in G1 (G1 arrest) (SKMG3 cells; SKMG3, 48 hours of 10 uM NGI-1, control 69%): 78%
cells in G1 six hours after 4 Gy (SKMG3 cells; SKMG-3, NGI-1 + 4 Gy, 56% without NGI-1): 72%
effect on SF2Gy (U251 cells): unaffected
dose enhancement factor (DEF) at a surviving fraction of 0.4 (D54 cells; 10 μM NGI-1): 1.3
survival fraction at 2 Gy (SF2Gy) (D54 cells; 10 μM NGI-1 48 hours before radiation, 69% without NGI-1): 51%
effect on SF2Gy (T98G cells): unaffected
cells in G1 (G1 arrest) (H1975): 60%
cells in G1 (G1 arrest) (HCC-827-GR cells): 75%
cells in G1 (G1 arrest) (PC9-GR2): 80%
cells in G1 (G1 arrest) (H1975-OR cells): 75%
cells in G1 (G1 arrest) (PC9-GR1): 60%
radiosensitization by NGI-1 (radiation clonogenic survival) (SKMG3-CD8-EGFR cells [1]): prevented radiosensitization
phosphorylation of PDGFR (MET, PDGFR and FGFR RTKs; 42-MG, SKMG3, and T98G cells): uniformly reduced
phosphorylation of MET (MET, PDGFR and FGFR RTKs; D54, SKMG3, U251, and T98G cells): uniformly reduced phosphorylation
FGFR1 levels (MET, PDGFR and FGFR RTKs; glioma cell lines): increased
FGFR1 receptor phosphorylation (MET, PDGFR and FGFR RTKs; glioma cell lines): not accompanied by an increase in receptor phosphorylation
H3255 proliferation (H3255): significantly inhibits
G1 cell cycle arrest caused by NGI-1, alone and after exposure to radiation (SKMG3-CD8-EGFR cells [2]): eliminated the G1 cell cycle arrest

From patent publication US10765638B2, “Particle formulation with polycation complex” (Yale University, priority 2017, dated 2020)
